Measured values as given in the SangsterLogP compilation.

Assay: not given

Row | SMILES | logP
1 | Fc1ccc(-c2nccnc2-c2ccc(F)cc2)cc1 | 3.75
2 | CCOc1cnc(-c2ccc(OC)cc2)c(-c2ccc(OC)cc2)n1 | 4.22
3 | Cc1ncc(C)[n+]([O-])c1Cl | 0.19
4 | Cc1nc(Cl)c(C)[n+]([O-])c1Cl | 1.08
5 | [O-][n+]1cc(Cl)nc(-c2ccc(Cl)cc2)c1-c1ccc(Cl)cc1 | 3.66
6 | Cc1c[n+]([O-])c(C)c(Cl)n1 | 0.44
7 | COc1ccc(-c2ncc(C#N)nc2-c2ccc(OC)cc2)cc1 | 3.7
8 | COc1ccc(-c2nc(C)c(C)nc2-c2ccc(OC)cc2)cc1 | 4.1
9 | COc1ccc(-c2ncc(C)nc2-c2ccc(OC)cc2)cc1 | 3.66
10 | Brc1ccc(-c2nccnc2-c2ccc(Br)cc2)cc1 | 3.41
11 | COC(=O)c1cnc(-c2ccc(OC)cc2)c(-c2ccc(OC)cc2)n1 | 3.41
12 | Cc1ccc(-c2nccnc2-c2ccc(C)cc2)cc1 | 4.1
13 | COc1ccc(-c2ncc(OC)nc2-c2ccc(OC)cc2)cc1 | 4.47
14 | COc1ccc(-c2nccnc2-c2ccc(OC)cc2)cc1 | 3.42
15 | N#Cc1ccc(-c2nccnc2-c2ccc(C#N)cc2)cc1 | 2.52
16 | Cc1nc(Cl)c(C)nc1Cl | 2.4

The remaining lines, values ahead:

Row | logP | SMILES
17 | 4.71 | CC(C)c1cnc(-c2ccccc2)c(-c2ccccc2)n1
18 | 3.19 | c1ccc(-c2nccnc2-c2ccccc2)cc1
19 | 4.94 | CCc1nc(-c2ccccc2)cnc1-c1ccccc1
20 | 4.05 | Clc1cnc(-c2ccccc2)c(-c2ccccc2)n1
21 | 4.83 | Cc1nc(C)c(-c2ccccc2)nc1-c1ccccc1
22 | 4.21 | COc1cnc(-c2ccccc2)c(-c2ccccc2)n1
23 | 5.2 | COc1ccccc1Cc1cnc(-c2ccccc2)c(-c2ccccc2)n1
24 | 4.73 | CCOc1cnc(-c2ccccc2)c(-c2ccccc2)n1
25 | 3.52 | Cc1cnc(-c2ccccc2)c(-c2ccccc2)n1
26 | 4.3 | COc1ccc(-c2ncc(Cl)nc2-c2ccc(OC)cc2)cc1
27 | 4.28 | Cc1nc(-c2ccccc2)cnc1-c1ccccc1

Assay: method code SF-HPLC, from DOI: 10.1021/js990112s, PMID: 10585226

Row | logP | SMILES
28 | 2.07 | c1ccc(-c2cnccn2)cc1
29 | 2.24 | COc1ccc(-c2cnccn2)cc1
